pIC50: −log10 of the molar value.
Test system: 188146-221-R-J1-PDC complex spheroid viability
Experiment: Anticancer human tumor 188146-221-R-J1-PDC patient-derived colon adenocarcinoma cell line growth inhibition [POLQ]
Conditions: for pIC50: curve of first compound; for viability, T/C: stronger effect = lower value
Summary of the method: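 Patient-derived tumour cells were co-cultured with HUVEC and mesenchymal stem cells as multicellular spheroids at 37 °C. They were treated with POLQ inhibitors (novobiocin, ART-558, RP6685) alone or combined with other agents. Top concentrations were at or near clinical Cmax (otherwise 10 microM; SN-38 at 1 microM), decreasing in half-log steps.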

[1] = second compound 0.0316 µM, first compound 0.0316 µM
[2] = second compound 0.0316 µM, first compound 0.1 µM
[3] = second compound 0.0316 µM, first compound 0.316 µM
[4] = second compound 0.0316 µM, first compound 1 µM
[5] = second compound 0.0316 µM, first compound 3.16 µM
[6] = second compound 0.0316 µM, first compound 10 µM
[7] = second compound 0.1 µM, first compound 0.0316 µM
[8] = second compound 0.1 µM, first compound 0.1 µM
[9] = second compound 0.1 µM, first compound 0.316 µM
[10] = second compound 0.1 µM, first compound 1 µM
[11] = second compound 0.1 µM, first compound 3.16 µM
[12] = second compound 0.1 µM, first compound 10 µM
[13] = second compound 0.316 µM, first compound 0.0316 µM
[14] = second compound 0.316 µM, first compound 0.1 µM
[15] = second compound 0.316 µM, first compound 0.316 µM
[16] = second compound 0.316 µM, first compound 1 µM
[17] = second compound 0.316 µM, first compound 3.16 µM
[18] = second compound 0.316 µM, first compound 10 µM
[19] = second compound 1 µM, first compound 0.0316 µM
[20] = second compound 1 µM, first compound 0.1 µM
[21] = second compound 1 µM, first compound 0.316 µM
[22] = second compound 1 µM, first compound 1 µM
[23] = second compound 1 µM, first compound 3.16 µM
[24] = second compound 1 µM, first compound 10 µM
[25] = second compound 3.16 µM, first compound 0.0316 µM
[26] = second compound 3.16 µM, first compound 0.1 µM
[27] = second compound 3.16 µM, first compound 0.316 µM
[28] = second compound 3.16 µM, first compound 1 µM
[29] = second compound 3.16 µM, first compound 3.16 µM
[30] = second compound 3.16 µM, first compound 10 µM
[31] = second compound 10 µM, first compound 0.0316 µM
[32] = second compound 10 µM, first compound 0.1 µM
[33] = second compound 10 µM, first compound 0.316 µM
[34] = second compound 10 µM, first compound 1 µM
[35] = second compound 10 µM, first compound 3.16 µM
[36] = second compound 10 µM, first compound 10 µM
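Note: spheroids exposed to compounds for seven days.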
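Throughout, for viability, T/C: 100% = DMSO vehicle control viability.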

Compound CCc1cc2c(N3CCc4c(cc(Cn5ccnc5)cc4-c4cn(C)nc4C(F)(F)F)C3=O)cc(C)nc2c(OC)n1 + Nc1ccc(C#CCN(C(=O)Cc2ncc(C(F)(F)F)cc2C(F)(F)F)c2ccc(F)cc2)nn1 has a pIC50 (second compound 0.0316 µM) of 5.07, a pIC50 (second compound 0.1 µM) of 5.10 and a pIC50 (second compound 0.316 µM) of 5.16. The pIC50 (second compound 1 µM) was less than 5.00, the pIC50 (second compound 3.16 µM) was 5.15 and the pIC50 (second compound 10 µM) was 5.09. The viability, T/C [1] was 89.1%, the viability, T/C [2] was 101% and the viability, T/C [3] was 74.4%. For the same compound, the viability, T/C [4] was 85.7%, the viability, T/C [5] was 71.2% and the viability, T/C [6] was 46.3%. For the same compound, the viability, T/C [7] was 119%, the viability, T/C [8] was 101% and the viability, T/C [9] was 103%. For the same compound, the viability, T/C [10] was 95%, the viability, T/C [11] was 66% and the viability, T/C [12] was 46%. The viability, T/C [13] was 120%, the viability, T/C [14] was 101% and the viability, T/C [15] was 94%. The viability, T/C [16] was 103%, the viability, T/C [17] was 66.1% and the viability, T/C [18] was 40.8%. The viability, T/C [19] was 107%, the viability, T/C [20] was 96.3% and the viability, T/C [21] was 104%. It also gave a viability, T/C [22] of 95.2%, a viability, T/C [23] of 85.5% and a viability, T/C [24] of 50.4%. For the same compound, the viability, T/C [25] was 111%, the viability, T/C [26] was 115% and the viability, T/C [27] was 109%. For the same compound, the viability, T/C [28] was 85.8%, the viability, T/C [29] was 68.8% and the viability, T/C [30] was 42.1%. For the same compound, the viability, T/C [31] was 93.7%, the viability, T/C [32] was 102% and the viability, T/C [33] was 99%. The viability, T/C [34] was 84.8%, the viability, T/C [35] was 69.5% and the viability, T/C [36] was 45.6%.

Cn1ncnc1[C@H]1c2n[nH]c(=O)c3cc(F)cc(c23)N[C@@H]1c1ccc(F)cc1 + Nc1ccc(C#CCN(C(=O)Cc2ncc(C(F)(F)F)cc2C(F)(F)F)c2ccc(F)cc2)nn1 was tested, and the pIC50 (second compound 0.0316 µM) was less than 7.00, the pIC50 (second compound 0.1 µM) was less than 7.00 and the pIC50 (second compound 0.316 µM) was less than 7.00. For the same compound, the pIC50 (second compound 1 µM) was less than 7.00, the pIC50 (second compound 3.16 µM) was less than 7.00 and the pIC50 (second compound 10 µM) was less than 7.00. The viability, T/C (second compound 0.0316 µM, first compound 0.000316 µM) was 92%, the viability, T/C (second compound 0.0316 µM, first compound 0.001 µM) was 109% and the viability, T/C (second compound 0.0316 µM, first compound 0.00316 µM) was 98.2%. It also gave a viability, T/C (second compound 0.0316 µM, first compound 0.01 µM) of 116%, a viability, T/C [1] of 98.7% and a viability, T/C [2] of 93.2%. It also gave a viability, T/C (second compound 0.1 µM, first compound 0.000316 µM) of 111%, a viability, T/C (second compound 0.1 µM, first compound 0.001 µM) of 104% and a viability, T/C (second compound 0.1 µM, first compound 0.00316 µM) of 108%. For the same compound, the viability, T/C (second compound 0.1 µM, first compound 0.01 µM) was 102%, the viability, T/C [7] was 100% and the viability, T/C [8] was 96%. For the same compound, the viability, T/C (second compound 0.316 µM, first compound 0.000316 µM) was 102%, the viability, T/C (second compound 0.316 µM, first compound 0.001 µM) was 103% and the viability, T/C (second compound 0.316 µM, first compound 0.00316 µM) was 96.7%. The viability, T/C (second compound 0.316 µM, first compound 0.01 µM) was 93.8%, the viability, T/C [13] was 112% and the viability, T/C [14] was 98.9%. For the same compound, the viability, T/C (second compound 1 µM, first compound 0.000316 µM) was 100%, the viability, T/C (second compound 1 µM, first compound 0.001 µM) was 107% and the viability, T/C (second compound 1 µM, first compound 0.00316 µM) was 109%. For the same compound, the viability, T/C (second compound 1 µM, first compound 0.01 µM) was 94.5%, the viability, T/C [19] was 95.2% and the viability, T/C [20] was 97.2%. It also gave a viability, T/C (second compound 3.16 µM, first compound 0.000316 µM) of 106%, a viability, T/C (second compound 3.16 µM, first compound 0.001 µM) of 99.3% and a viability, T/C (second compound 3.16 µM, first compound 0.00316 µM) of 95.9%. For the same compound, the viability, T/C (second compound 3.16 µM, first compound 0.01 µM) was 91.7%, the viability, T/C [25] was 95.8% and the viability, T/C [26] was 93%. It also gave a viability, T/C (second compound 10 µM, first compound 0.000316 µM) of 108%, a viability, T/C (second compound 10 µM, first compound 0.001 µM) of 95.3% and a viability, T/C (second compound 10 µM, first compound 0.00316 µM) of 116%. The viability, T/C (second compound 10 µM, first compound 0.01 µM) was 119%, the viability, T/C [31] was 109% and the viability, T/C [32] was 90.1%.

Work on CCCS(=O)(=O)Nc1ccc(F)c(C(=O)c2c[nH]c3ncc(-c4ccc(Cl)cc4)cc23)c1F + COC1C(OC(N)=O)C(O)C(Oc2ccc3c(O)c(NC(=O)c4ccc(O)c(CC=C(C)C)c4)c(=O)oc3c2C)OC1(C)C yielded a pIC50 (second compound 0.0316 µM) of 5.26, a pIC50 (second compound 0.1 µM) of 5.23 and a pIC50 (second compound 0.316 µM) of 5.31. It also gave a pIC50 (second compound 1 µM) of 5.25, a pIC50 (second compound 3.16 µM) of 5.11 and a pIC50 (second compound 10 µM) of 5.28. For the same compound, the viability, T/C [1] was 106%, the viability, T/C [2] was 92% and the viability, T/C [3] was 77.3%. For the same compound, the viability, T/C [4] was 76.3%, the viability, T/C [5] was 79.8% and the viability, T/C [6] was 27.5%. For the same compound, the viability, T/C [7] was 110%, the viability, T/C [8] was 102% and the viability, T/C [9] was 89%. It also gave a viability, T/C [10] of 89.8%, a viability, T/C [11] of 76.9% and a viability, T/C [12] of 29.7%. It also gave a viability, T/C [13] of 100%, a viability, T/C [14] of 89.5% and a viability, T/C [15] of 94.5%. It also gave a viability, T/C [16] of 79.7%, a viability, T/C [17] of 65.3% and a viability, T/C [18] of 26.8%. The viability, T/C [19] was 100%, the viability, T/C [20] was 96.2% and the viability, T/C [21] was 85.4%. The viability, T/C [22] was 84.7%, the viability, T/C [23] was 75.1% and the viability, T/C [24] was 27.4%. It also gave a viability, T/C [25] of 102%, a viability, T/C [26] of 103% and a viability, T/C [27] of 92.2%. The viability, T/C [28] was 72.3%, the viability, T/C [29] was 80.9% and the viability, T/C [30] was 41.2%. It also gave a viability, T/C [31] of 102%, a viability, T/C [32] of 90.2% and a viability, T/C [33] of 96.3%. It also gave a viability, T/C [34] of 78.2%, a viability, T/C [35] of 72.7% and a viability, T/C [36] of 26%.

For C#Cc1c(F)ccc2cc(O)cc(-c3ncc4c(N5CC6CCC(C5)N6)nc(OCC56CCCN5CC(F)C6)nc4c3F)c12 (stereo not drawn) + Nc1ccc(C#CCN(C(=O)Cc2ncc(C(F)(F)F)cc2C(F)(F)F)c2ccc(F)cc2)nn1, the pIC50 (second compound 0.0316 µM) was less than 5.00, the pIC50 (second compound 0.1 µM) was less than 5.00 and the pIC50 (second compound 0.316 µM) was less than 5.00. The pIC50 (second compound 1 µM) was less than 5.00, the pIC50 (second compound 3.16 µM) was less than 5.00 and the pIC50 (second compound 10 µM) was less than 5.00. It also gave a viability, T/C [1] of 94.3%, a viability, T/C [2] of 100% and a viability, T/C [3] of 98.2%. The viability, T/C [4] was 89.7%, the viability, T/C [5] was 83.2% and the viability, T/C [6] was 89.4%. It also gave a viability, T/C [7] of 99.9%, a viability, T/C [8] of 105% and a viability, T/C [9] of 95.5%. For the same compound, the viability, T/C [10] was 95.1%, the viability, T/C [11] was 89.9% and the viability, T/C [12] was 103%. For the same compound, the viability, T/C [13] was 103%, the viability, T/C [14] was 83.5% and the viability, T/C [15] was 100%. The viability, T/C [16] was 96.8%, the viability, T/C [17] was 87.8% and the viability, T/C [18] was 86.6%. For the same compound, the viability, T/C [19] was 88.6%, the viability, T/C [20] was 86.7% and the viability, T/C [21] was 98.8%. For the same compound, the viability, T/C [22] was 92.3%, the viability, T/C [23] was 91.3% and the viability, T/C [24] was 80.8%. For the same compound, the viability, T/C [25] was 106%, the viability, T/C [26] was 102% and the viability, T/C [27] was 102%. The viability, T/C [28] was 95.9%, the viability, T/C [29] was 100% and the viability, T/C [30] was 86.5%. For the same compound, the viability, T/C [31] was 102%, the viability, T/C [32] was 93.5% and the viability, T/C [33] was 87.1%. It also gave a viability, T/C [34] of 105%, a viability, T/C [35] of 106% and a viability, T/C [36] of 89.5%.
